Test results reported in patent US9707267B2, “Beta-turn peptidomimetic cyclic compounds for treating dry eye” (Mimetogen Pharmaceuticals, Inc., priority 2008, dated 2017).

What was measured:
[1] = test system: rat conjunctival goblet cells; assay: Glycoconjugate secretion from rat conjunctival goblet cells, ELLA (Example 1); assay type: cell-based; settings: 2 hours, mean±sem
Method: Cells derived from the explants were grown in RPMI 1640 supplemented with 10% fetal bovine serum (FBS) and penicillin (100 U/mL)/streptomycin (100 μg/mL) at 37° C. in a humidified 5% CO2-atmosphere for seventy-two hours. Contaminating nongoblet cells were removed by scraping them from the plate. During this time, goblet cells migrated from the pieces and began to proliferate. After one week, the goblet cells were trypsinized and plated in twenty-four well culture plates with RPMI-1640 media supplemented with 10% FBS.
To measure glycoconjugate secretion, the conjunctival goblet cells were grown to confluence and were serum deprived for two hours before addition of nerve growth factor (NGF), carbachol (Cch), compound D3, compound 3Aa and compound 3Ak for two hours. Compounds D3, 3Aa and 3Ak were administered at concentrations of 30 μm (micromolar), 10 μM, 1 μM and 0.3 μM. The vehicle used to dissolve the compounds, dimethyl sulfoxide (DMSO) was also included. DMSO was used as the basal control for the 30 μM concentration of compound, which was at 0.1% (v/v). The cholinergic agonist carbachol (Cch), added at 100 μM (micromolar), was a positive control for glycoconjugate secretion. The amount of glycoconjugate secreted into the media was measured by enzyme-linked lectin assay (ELLA). The media were collected and analyzed for amount of the lectin-detectable glycoconjugates, including mucins. The amount of secretion was measured by using the lectin UEA-I which is specific for rat conjunctival goblet cell mucins. Biotinylated UEA-I lectin and alkaline phosphatase-labeled streptavidin were used as described in Rios, J. D., et al., “Role of Neurotrophins and Neurotrophin Receptors in Rat Conjunctival Goblet Cell Secretion and Proliferation, Ophthalmology & Visual Science, 48: 1543-1551 (2007), the entire content of which is incorporated herein by reference. The cells were removed and sonicated, and the cell homogenate was analyzed for the total amount of protein by using the Bradford protein assay. […] Glycoconjugate secretion was expressed as the increase (x-fold) over basal.
Data for CGC glycoconjugate secretion and proliferation were expressed as the increase (x-fold) above basal value, which was standardized to 1.0. For example, for the 0.3 μM (micromolar), 1 μM and 10 μM doses, the CGC glycoconjugate secretion and proliferation were expressed as test compound over untreated cells. For the 30 μM dose, the CGC glycoconjugate secretion and proliferation were expressed as test compound over DMSO untreated cells. Results are expressed as the mean±sem.

[2] = test system: cultured rat conjunctival goblet cells; assay: Goblet cell glycoconjugate secretion, ELLA with UEA-1 (Example 2); assay type: cell-based; settings: 2 hours; for Glycoconjugate Secretion, Mean ± sem: mean of rats; for Glycoconjugate Secretion, Mean ± SD: mean of rats/plates
Method: The culturing of conjunctival goblet cells from explant cultures was as previously described in Shatos, M. et al., “Isolation, Characterization, and Propagation of Rat Conjunctival Goblet Cells In Vitro,” IOVS 42:1455-1464 (2001), the entire content of which is incorporated herein by reference. The tissue was finely minced and individual pieces were anchored onto scored 6-well cultures dishes in 0.5 mL of complete RPMI-1640 (supplemented with 10% FBS, 2 mM glutamine and 100 μg/mL penicillin-streptomycin) and incubated at 37° C. in a humidified 5% CO2-atmosphere. Explant cultures were refed every 2 days. Within a few days, goblet cells migrated from the pieces and began to proliferate. After approximately one week, the tissue plugs were removed and the goblet cells were allowed to grow to confluence. Cells were passaged once by trypsinization of adherent cells with 0.05% trypsin-0.53 mM EDTA (pH 7.4), and plated in 8-well Laboratory Tek chamber slides (histochemistry) or in 96 well (proliferation), 24 well (secretion), or 6 well (western blots) culture plates with complete RPMI-1640 media.
To measure cell secretion, goblet cells were grown to confluence and then serum depleted for 2 hours prior to stimulation. Cells were incubated with compound D3 at 2, 10, and 50 μM, NGF at 0.1, 1 and 10 nM, and PMA at 0.1, 1, and 10 nM in serum-free RPMI for 2 hours. Goblet cell secretion was measured using an enzyme-linked lectin assay (ELLA). Briefly, an aliquot of the cell culture supernatant was transferred to a 96-well polystyrene microtiter plate in triplicate (Corning Life Sciences #2592, Fisher Scientific, Nepean, Ont). A dilution series of bovine submaxillary mucin (BSM) (Sigma, St. Louis, Mo.) was included on each plate as the standard (standard curve data and data showing that detection of BSM is linear between 0.003 and 0.1 μg not shown). The plates were coated by evaporation at 37° C. overnight. After, the plates were washed three times with wash buffer [PBS containing 0.3% BSA, 0.05% Tween-20] then blocked for nonspecific binding with PBS containing 3% BSA and 0.05% Tween-20 at 37° C. for 1 hour. The wells were rinsed three times in wash buffer, and then incubated in 2 μg/mL biotinylated UEA-1 diluted in wash buffer (Vector Labs, Burlingame, Calif.) at 37° C. for 1 hour. The wells were rinsed three times in wash buffer, and then incubated in 1 μg/mL HRP-conjugated neutravidin diluted in wash buffer (Pierce, Rockford, Ill.) at 37° C. for 1 hour. After the wells were rinsed three times in wash buffer, the color development was performed with TMB (Promega, Madison, Wis.) and stopped with 0.5N Sulfuric acid. The absorbance was read at 450 nm on a Benchmark Plus (Biorad). The goblet cells remaining in the culture wells were either scraped in RIPA buffer [1% TritonX-100, 20 mM Tris-HCl pH 7.5, 150 mM NaCl, 1.5 mM MgCl2, 1% Na deoxycholate, 1 mM EGTA, 1 mM EDTA, 0.1% SDS, 10% glycerol, 1 mM Na vanadate, 10 mM Na fluoride, 10 mM Na pyrophosphate, complete mini EDTA-free protease inhibitors (Roche Applied Science, Indianapolis, Ind.)] or 1M Tris-buffer (pH 7.5), collected and sonicated. The amount of protein in the cell homogenate was analyzed using the Bradford protein assay kit using a dilution series of bovine serum albumin (BSA) as the standard (BioRad, Montreal, PQ). Glycoconjugate secretion was normalized to total protein in the homogenate. Data was then expressed as fold increase above basal. […]

p42/44 MAPK = assay: Activation of p42/44 MAPK in goblet cells, Western blot (Example 2); assay type: cell-based, rat; settings: 100 nM, 5 minutes, positive control
Method: The activation of p42/44 MAPK was examined using Western blot techniques. Goblet cells were serum starved in serum-free RPMI for 4-6 hrs prior to the addition of PMA (100 nM), NGF (1 or 10 nM), or MIM-D3 (10 or 50 μM) for 5 minutes at 37° C. After, cells were rinsed once in cold PBS, scraped in 100 μL of 1×SDS-PAGE sample buffer [62.5 mM Tris-HCl pH 6.8, 10% glycerol, 2% SDS, 5% β-mercaptoethanol, 0.02 mg/mL bromophenol blue] and sonicated for 20 minutes. The homogenates were centrifuged at 14,900 g for 15 min at 4° C. Proteins in a […] of the supernatant were separated by SDS-PAGE (8% acrylamide gels) and transferred to nitrocellulose membranes. The membranes were blocked for 2 hours in 5% non-fat dried milk in buffer containing 20 mM Tris-HCl, pH 8.0, 150 mM NaCl, and 0.01% Tween-20 (TBST). The blots were then probed with an antibody directed against the phosphorylated form of MAPK1/2 (Calbiochem, San Diego, Calif.) at 0.1 μg/mL in TBST containing 5% BSA overnight at 4° C., followed by a 1 hour incubation in HRP-conjugated secondary anti-mouse antibody (Sigma, St. Louis, Mo.) at room temperature in TBST containing 5% non-fat dried milk. Immunoreactive bands were visualized using the enhanced chemiluminescence method (Perkin Elmer, Waltham, Mass.). The blots were stripped at 55° C. for 30 minutes in stripping buffer [62.5 mM Tris-HCl pH 6.8, 2% SDS, 0.1M β-mercaptoethanol] followed by re-probing with an antibody directed against actin (1:5000 dilution, Sigma, St. Louis, Mo.) in TBST containing 5% non-fat dried milk and incubation in HRP-conjugated secondary anti-rabbit antibody. The immunoreactive bands were digitally scanned on an EPSON scanner and analyzed using NIH ImageJ v1.38x. The amount of phosphorylated MAPK in each sample was standardized to the amount of total actin protein in the sample.
To determine if compound D3 and NGF induced glycoconjugates secretion via activation of the MAPK pathway, cultured goblet cells from 3 independent rats were stimulated by 10 and 50 μM compound D3, 1 and 10 nM NGF or PMA (100 nM, the positive control) for 5 minutes and MAPK activity was measured by western blot analysis. A representative western blot from 3 independent rat goblet cell cultures is shown in FIG. 9, and the quantification is shown in FIG. 10. There was a statistically significant effect of treatment on MAPK activation (P<0.0001). Compound D3 increased MAPK activity above basal by 2.5±0.3 fold at 10 μM and 2.2±0.5 fold at 50 μM and NGF increased MAPK activity by 2.8±0.5 at 1 nM (P<0.05) and 1.7±0.2 at 10 nM.

C[N+](C)(C)CCOC(N)=O [Cch, carbachol, reference compound]
CGC glycoconjugate secretion ([1]; 100 μM, positive control): 1.3±0.3 fold above basal

CC[C@H](C)[C@@H]1NC(=O)c2cc(N)ccc2OCc2ccc(C(N)=O)cc2NC(=O)[C@H](CCCCN)NC1=O [Compound 3Aa]
CGC glycoconjugate secretion ([1]; 0.3 μM): 2.1±0.3 fold above basal | CGC glycoconjugate secretion ([1]; 1 μM): 1.6±0.3 fold above basal | CGC glycoconjugate secretion ([1]; 10 μM): 1.7±0.4 fold above basal | CGC glycoconjugate secretion ([1]; 30 μM, over DMSO basal): 2.1±0.7 fold above basal

N=C(N)NCCC[C@@H]1NC(=O)c2cc(N)ccc2OCc2ccc(C(N)=O)cc2NC(=O)CNC1=O [Compound 3Ak]
CGC glycoconjugate secretion ([1]; 0.3 μM): 1.4±0.3 fold above basal | CGC glycoconjugate secretion ([1]; 1 μM): 1.1±0.3 fold above basal | CGC glycoconjugate secretion ([1]; 10 μM): 1.2±0.1 fold above basal | CGC glycoconjugate secretion ([1]; 30 μM, over DMSO basal): 1.1±0.3 fold above basal

CCCCCCCCCCCCCC(=O)O[C@@H]1[C@@H](C)[C@@]2(O)[C@@H](C=C(CO)C[C@]3(O)C(=O)C(C)=C[C@@H]23)[C@@H]2C(C)(C)[C@]12OC(C)=O [PMA, Phorbol-12-myristate-13-acetate, reference compound]
Glycoconjugate Secretion ([2]; 0.1 nM, Rat 2): 1.39 Fold increase above basal | Glycoconjugate Secretion ([2]; 0.1 nM, Rat 2 Plate 2): 3.2 μg glycoconjugate/mg total protein | Glycoconjugate Secretion ([2]; 0.1 nM, Rat 3): 1.41 Fold increase above basal | Glycoconjugate Secretion ([2]; 0.1 nM, Rat 3 Plate 1): 6.9 μg glycoconjugate/mg total protein | Glycoconjugate Secretion, Mean ± sem ([2]; 0.1 nM): 1.40 ± 0.01 Fold increase above basal | Glycoconjugate Secretion, Mean ± SD ([2]; 0.1 nM): 5.1 ± 2.6 μg glycoconjugate/mg total protein | Glycoconjugate Secretion ([2]; 1 nM, Rat 1): 1.05 Fold increase above basal | Glycoconjugate Secretion ([2]; 1 nM, Rat 1 Plate 2): 4.1 μg glycoconjugate/mg total protein | Glycoconjugate Secretion ([2]; 1 nM, Rat 2): 1.78 Fold increase above basal | Glycoconjugate Secretion ([2]; 1 nM, Rat 2 Plate 2): 4.1 μg glycoconjugate/mg total protein | Glycoconjugate Secretion, Mean ± sem ([2]; 1 nM): 1.42 ± 0.37 Fold increase above basal | Glycoconjugate Secretion, Mean ± SD ([2]; 1 nM): 4.1 ± 0 μg glycoconjugate/mg total protein | Glycoconjugate Secretion ([2]; 10 nM, Rat 1): 1.56 Fold increase above basal | Glycoconjugate Secretion ([2]; 10 nM, Rat 1 Plate 1): 11.3 μg glycoconjugate/mg total protein | Glycoconjugate Secretion ([2]; 10 nM, Rat 1 Plate 2): 3.5 μg glycoconjugate/mg total protein | Glycoconjugate Secretion ([2]; 10 nM, Rat 2): 1.30 Fold increase above basal | Glycoconjugate Secretion ([2]; 10 nM, Rat 2 Plate 2): 3.0 μg glycoconjugate/mg total protein | Glycoconjugate Secretion ([2]; 10 nM, Rat 3): 1.24 Fold increase above basal | Glycoconjugate Secretion ([2]; 10 nM, Rat 3 Plate 1): 6.1 μg glycoconjugate/mg total protein | Glycoconjugate Secretion ([2]; 10 nM, Rat 4): 0.85 Fold increase above basal | Glycoconjugate Secretion ([2]; 10 nM, Rat 4 Plate 2): 8.4 μg glycoconjugate/mg total protein | Glycoconjugate Secretion, Mean ± sem ([2]; 10 nM): 1.30 ± 0.25 Fold increase above basal | Glycoconjugate Secretion, Mean ± SD ([2]; 10 nM): 6.5 ± 3.5 μg glycoconjugate/mg total protein | increase in mucin secretion ([2]; 0.1, 1 and 10 nM, not dose-dependent): ~1.4 fold | MAPK activity above basal (p42/44 MAPK): 6.1±0.7 fold
